Laboratory results as given in patent USRE50563E1, “Use of an all-D-pentapeptide chemokine antagonist to reduce opioid dose in a person with pain” (Creative Bio-Peptides, Inc., priority 2017, dated 2025).
Read-outs that look alike come from different tables or passages of the source.

Columns and labels:
[1] = tested on: cytokines, IL1β, TNFα; chemokines CCL2, CCL3; and chemokines receptors CCR2 and CCR5; settings: 0.5 mg/kg, for 7 days, p.o., FIGS. 3A-F
Method: To test the hypothesis, we first used behavioral and molecular/cellular approaches to explore chronic pain development and inflammatory reaction in Streptozotocin (STZ) induced diabetic rats. […] CCL2 and CCL3 are two chemokines well known in mediating immune cell trafficking and immune response in the context of neuropathic pain.
(§1) The induction of diabetes was confirmed 72 h after streptozotocin injection by measurement of blood glucose levels using Contour® blood glucose diagnostic kit (Bayer HealthCare, Canada). Body weight and blood glucose levels were measured before and 3 days after streptozotocin injection, once a week for three weeks after diabetes induction. Only rats having blood glucose concentration consistently higher than 300 mg/dl were used for the present study.

[2] = tested on: Male, Sprague-Dawley rats; settings: for morphine analgesia in an animal model of post-surgical pain (reversal of mechanical allodynia): RAP-103 0.5 mg/kg i.p. plus morphine 5.0 mg/kg s.c. vs morphine alone, 25 min post-surgery, FIG. 4
[3] = tested on: Streptozotocin (STZ) induced diabetic rats; settings: oral gavage daily, FIGS. 2A-B
Method: as §1
(§2) Appropriate concentration for each dose was adjusted accordingly.
Cumulative scores were then obtained by summing the four scores for each rat, the minimum score being 0 (no response to any of the four trials) and the maximum possible score being 12 (repeated flicking and licking of paws on each of the four trials).
(§3) Assessment on the effects of RAP103 on mechanical and cold allodynia was performed between 2-4 hours following the drug administration.
(§4) All data were presented as means±SEM. Statistical analysis was performed by two-way ANOVA followed by Bonferroni post-tests. The criterion for statistical significance was P<0.05.

[4] = tested on: Streptozotocin (STZ) induced diabetic rats
Method: as §1, §2
Animals were placed in Plexiglas boxes on an elevated metal mesh floor and allowed 60 min for habituation before testing. […] Withdrawal thresholds of both paws were averaged as one single value per animal.
as §3, §4

## all-D-TTNYT [RAP-103]
[1]
  inflammation in the sciatic nerves of STZ rats (inflammatory mediators): reducing significantly all examined inflammatory mediators
[1]; listed as RAP103
  inflammation in the sciatic nerves of STZ rats (inflammatory mediators): significantly inhibited inflammation
[2]
  morphine analgesia in an animal model of post-surgical pain (reversal of mechanical allodynia): statistically significantly greater analgesia
[2]; listed as RAP103
  morphine analgesia in an animal model of post-surgical pain (reversal of mechanical allodynia): potentiates morphine analgesia
[2]; RAP-103 0.5 mg/kg plus morphine 0.5 to 5.0 mg/kg, % reversal of mechanical allodynia at t=60 min, FIG. 5
  shift to the left of the ED50 for morphine by addition of RAP-103: about 2 fold
[3]
  cold allodynia in rats with neuropathic pain: reversed cold allodynia
[4]; 0.5.-0.02 mg/Kg b.w., daily, for 7 days, mechanical and cold allodynia
  established hypersensitivity in STZ rats: complete reversal of established hypersensitivity
[4]; STZ diabetic rats, oral gavage daily, FIGS. 1A-B
  mechanical allodynia in rats with neuropathic pain: reversed mechanical allodynia
